The subject of one test is finger scratch bleeding. Description: finger scratched to bleed, substance applied to bleeding site. Format: in vivo, human. The settings on record: for black blood coagulation / black color formation: derivatives in powder or gel or liquid form; for stopping of bleeding: powder or gel or liquid form. The text has this: Myself, finger little scratched, slightly bleeds.

For another test, the system named is capillary bleeding. Description: capillary bleeding in rat, one capillary cut off. Format: in vivo.
In test [1] the test system is surgical / dental bleeding. Description: clinical evidence: topical powder on surgical and dental bleeding in patients. Format: in vivo, human. The settings on record: person. Here is the method: Person, scalp tumor excision, massive bleeding when the tumor is excised.
Person, acute renal failure, A-V fistula formation operation, masive bleeding. The operation of stopping bleeding consists of combing the powder with pressing with gauzes. […] At the end of the operation, most of black blood coagulation is wiped out with 4×4 gauze, and rinsed with Ringer's solution. It takes totally 5 minutes to stop the bleeding completely, as the surgeon keeps wiping away the coagulation. The patient's conditions are particularly well, better than without using this powder.
Person, skin contracture on the palm, which needs to be removed, and it requires skin graft. When the skin graft is removed from the hand, massive bleeding occurs. On applying sufficient powder to the bleeding area topically, it appears black coagulation on contact. […] Those that appears more black area indicate the more powder mixed up with the blood. Suture going on.
Person, paraanal excision, bleeding when it is opened up. […] Those that appears white are the powder that are not mixed up with the blood. Suture going on.
Person, paranal abscess Excision, massive bleeding when it is opened. […] The white color is the powder instantly not mixed up with the blood yet. Lastly, insert the long gauze into the anus.
Person, chronic hepatitis, has bleeding tendency, extraction of teeth causes massive bleeding.

For test [2], the system named is massive bleeding of femoral artery. Description: femoral artery bleeding in rat, powder poured topically. The class given is in vivo. Here is the method: Sufficient composition comprising powdered D,L-threo-hex-2-enono-1,4-lactone and excipients stops massive bleeding of femoral artery on contact when femoral artery of a rat is cut off In this case of artery on contact when femoral artery of a rat is cut off. In this case of artery bleeding, it is administered topically by pouring instead of spraying. […] Those white spots indicate the powder that is not yet mixed up with the blood. The gel forms first on the surface of the pond of blood, that stops the fluid moving. If stirring the blood to break through the surface film like structure that keeps the blood fluid from moving when the powder is insufficient, it will bleed again, but much slower than before pouring the powder into the bleeding area; adding sufficient powder into the blood, stirring makes the powder molecules well saturated with the hemoglobin and plasma protein molecules and thus forming the concentrated black gel like structure.

The subject of another test is human blood. Description: test tube black blood coagulation of human blood. An excerpt: The present invention is directed to a method for stopping bleeding, comprising administering powdered D,L-threo-hex-2-enono-1,4-lactone tablets thereof to the wound site in an amount of 0.1568 grams for every milliliter of blood. This powder has a very potent coagulation action to stop bleeding when spraying topically on the bleeding area for any normal or diseased patients. When the powder comes in contact with the blood, the black tar like material is formed, and later becomes solid. The amount of the powder that is needed to react completely with the blood is proportional to the amount of the blood that comes out of the blood vessels. […] The artery bleeding needs much more this powder of interest. […] This is the same for normal, colon cancer and hemophilia patients; 1 ml of normal blood needs 0.1568 grams of D,L-threo-hex-2-enono-1,4-lactone powder, 1 ml of colon cancer needs 0.1568 grams of D,L-threo-hex-2-enono-1,4-lactone, 1 ml of hemophilia blood needs 0.1568 grams of D,L-threo-hex-2-enono-1,4-lactone. Sufficient powdered D,L-threo-hex-2-enono-1,4-lactone is particularly useful to stop bleeding in the case of diffuse capillary oozing and mistakenly cut off artery or arteries that can not be found during massive bleeding so as to save the patients's lives therefor. When D,L-threo-hex-2-enono-1,4-lactone is absorbed into the system, it is good for health by making the leucocytes stronger and slowing the aging process etc. However, at the end of operation before closure, the excessive black tar gel like material can be wiped away with Ringer's solution. Normal, liver Disease, Colon Cancer and Hemophilia Blood When tested in the tube, 1 milliliter of human blood requires 0.1568 grams of a composition comprising powdered D,L-threo-hex-2-enono-1,4-lactone to form black blood coagulation by shaking the tube with hand or stirrer machine. It takes 6 minutes to cause the black blood coagulation unmobile in the test tube for normal, liver diseases, colon cancer and hemophilia blood respectively.

In another test the test system is bleeding nostril. Description: nostril bleeding in rat. Format: in vivo.
The next test deals with gastric bleeding area. Description: bleeding area in rat after histamine-induced gastric acid secretion. As to conditions: rat after histamine injection; topical to bleeding area. Format: in vivo. An excerpt:
Thus this powder can treat the gastric ulcer bleeding when ingested orally.

Another test concerns venous bleeding. Description: vein bleeding in rat, one vein cut off. Format: in vivo.

“Also recorded” adds a separate entry of the source.

On to “D,L-threo-hex-2-enono-1,4-lactone-2-propane”, for which, in the test on finger scratch bleeding, the “black blood coagulation / black color formation” value is reported as “the black blood coagulation was formed” and the stopping of bleeding result is “bleeding was stopped on contact”.
Take `O=C1OC(C(O)CO)C(O)=C1O` [D,L-threo-hex-2-enono-1,4-lactone]: the “bleeding after adding the powder” value with capillary bleeding (after 1 minute from adding the powder) is recorded as “no more bleeding at all”. Also, the stopping of bleeding entry with capillary bleeding (rat, one capillary bleeding) was “stops the bleeding on contact; also recorded: within one second”; in test [1] (extraction of teeth, chronic hepatitis, bleeding tendency), “the bleeding in the socket stops on contact”; in test [1] (extraction of tooth), “the bleeding stops on contact”; in test [1] (paraanal abscess excision, sprayed), “it stops bleeding by forming black blood coagulation on contact”; in test [1] (scalp tumor excision, massive bleeding, sprayed), “the bleeding atops on contact”; in test [1] (skin contracture excision with skin graft, massive bleeding), “Bleeding stops at the same time as the black coagulation forms”. Moreover, the stopping of bleeding entry in the test on bleeding nostril (rat nostril, 0.0037 grams) is “the bleeding stops on contact”; in the test with venous bleeding (rat, one venous bleeding), “stop bleeding on contact; also recorded: within one second”. Moreover, the “amount of powder that stops bleeding” value with capillary bleeding (rat, one capillary cut off) is given as “about 0.0112 grams”. Also, the “time to stop the bleeding completely” value in test [1] (A-V fistula plasty, acute renal failure, powder plus gauze pressing, coagulation repeatedly wiped away) was determined as 5 min. Further, the “persistence of stopped bleeding after wiping out black coagulation” value in test [1] (extraction of tooth, wiped out in 10 seconds) was “stopped bleeding still persisted”. Moreover, the “black blood coagulation formation” value in test [1] (paraanal abscess excision, massive bleeding, sprayed) is “the black color is formed on contact”. For the same molecule, in test [2] (after 5-6 minutes), the “bleeding after sticky tar like structure is wiped away” value was “no bleeding at all”. Further, the “formation of black tar like material” value in test [2] (as soon as powder contacts the blood) was “formed in one second”. Besides, in test [2] (rat femoral artery bleeding, sufficient powder), the “time to stop bleeding” value was “within one second”. For the same molecule, the “amount of powder usually sufficient to stop bleeding” value in test [2] (rat femoral artery cut off, poured topically, amount varies with rats) was determined as 0.1344 grams. In the test with human blood (0.1568 grams per 1 ml normal or diseased human blood), the “time after which mixture does not move by shaking or pouring” value was found to be 6 min. Also, the “time to cause black blood coagulation unmobile in the test tube” value in the test with human blood (colon cancer blood), in the test with human blood (hemophilia blood), in the test with human blood (liver diseases blood) and with human blood (normal blood) was 6 min throughout. Also, the amount needed with human blood (per 1 ml of colon cancer blood), in the test on human blood (per 1 ml of hemophilia blood) and in the test with human blood (per 1 ml of normal blood) was 0.1568 grams in each case. Besides, the “amount required to form black blood coagulation” value in the test on human blood (per 1 ml of normal or diseased human blood, test tube) came out at 0.1568 grams. Moreover, the “amount of powder applied that stops bleeding” value in the test on bleeding nostril (rat nostril cut slightly) is 0.0037 grams. In addition, the black coagulation formation entry with gastric bleeding area is given as “the black coagulation formed, but slower than normal”. Further, the “black blood coagulation / black color formation” value in the test on finger scratch bleeding is given as “the black color forms on contact”. The “bleeding after black coagulation is wiped away” value in the test with venous bleeding (about 1½ minutes after wiping away) is given as “no more bleeding”. Moreover, the “amount of powder needed to stop bleeding” value with venous bleeding (rat, one vein cut off) is on record as “about 0.0224 grams”.
With `O=C1OC(C(O)CO)C(O)=C1OP(=O)(O)O` [D,L-threo-hex-enono-1,4-lactone-2-phosphate], in the test with finger scratch bleeding, the “black blood coagulation / black color formation” value is on record as “the black blood coagulation was formed” and the stopping of bleeding result is “bleeding was stopped on contact”.
For the molecule `O=C1OC(C(O)CO)C(O)=C1OC(=O)c1ccccc1` [D,L-threo-hex-2-enono-1,4-lactone-2-benzoate], in the test with finger scratch bleeding, the “black blood coagulation / black color formation” value is listed as “the black blood coagulation was formed” and the stopping of bleeding entry is “bleeding was stopped on contact”.
Consider `CCCCCCCCCCCCCCCC(=O)OCC(O)C1OC(=O)C(O)=C1O` [D,L-threo-hex-2-enono-1,4-lactone-6-palimitate], for which, in the test on finger scratch bleeding, the “black blood coagulation / black color formation” value is “the black blood coagulation was formed” and the stopping of bleeding result was “bleeding was stopped on contact”.

Values taken from patent publication US6783774B1 (priority 1990, dated 2004).
